These results are taken from patent US6395725B1, “Analgesic methods using synthetic catalysts for the dismutation of superoxide radicals” (priority 1997, dated 2002).

One test concerns morphine tolerance. Conditions: literature background; cited from earlier work.
The test system of a further test is tolerance to morphine. The test can be described thus: Morphine tolerance in mice, hot plate test. The format is in vivo. Here is the method:
Mice were treated twice a day with either saline (naive) or morphine (s.c., 10 mg/kg) for a period of 4 days to induce tolerance. For comparison, a dose of 10 mg, or less than 0.15 mg/kg every 4 to 10 hours, is a morphine dosage routinely prescribed for the 70 kg. human adult with severe pain. On day 5, all mice received a subcutaneous challenge dose of 3 mg./kg morphine and the level of analgesia was measured 30 minutes later. […] Tolerance to morphine was eliminated in mice that were treated with the superoxide dismutase catalyst SC-72325 administered intraperitoneally.
(In hot-plate and tail-flick tests a longer latency is read as antinociception.)

Test [1] relates to temporomandibular joint dysfunction. The note with it: intra-articular injections, patients with TMJ dysfunction; cited from earlier work.

Turning to `C[C@]12N[C@H](Cc3ccccc31)c1ccccc12` [MK-801], the morphine tolerance result in the test with morphine tolerance is given as “prevent morphine tolerance”. Take `NC(=NCCC[C@H](N)C(=O)O)N[N+](=O)[O-]` [NG-nitroarginine]: the morphine tolerance result in the test on morphine tolerance was “prevent and reverse morphine tolerance”.

As to `CN1CC[C@]23c4c5ccc(O)c4O[C@H]2[C@@H](O)C=C[C@H]3[C@H]1C5` [morphine], the “analgesic effect from morphine on day 5” value with tolerance to morphine (mice treated with morphine s.c. 10 mg/kg twice a day for 4 days, challenge 3 mg/kg, 30 minutes, versus naive mice) was “decreased analgesic effect”. The compound also returned an analgesia in the test with tolerance to morphine (naive or non-tolerant mice, s.c. challenge dose 3 mg/kg, hot plate test) of 90%. For the compound “human Cu/Zn superoxide dismutase: naturally occurring enzyme used intra-articularly as a nonsteroidal anti-inflammatory”, the “Positive response in terms of mandibular movement and pain” value in test [1] is listed as 83 % of patients.
